Measured values published in ChEMBL document CHEMBL5523733, “Small Molecule Targeting PPM1A Activates Autophagy for Mycobacterium tuberculosis Host-Directed Therapy” (J Med Chem, 2024).

Tested on: Mycobacterium tuberculosis
Experiment: Anti-mycobacterial activity against Mycobacterium tuberculosis mc2 6206 expressing autoluminescent luciferase infected in human THP-1 cells assessed as reduction in bacterial burden pretreated for 24 hrs followed by bacterial infection measured for 5 days post-infection with re-current replacement of media with compound for every 2 days by luminescence based assay
Type: functional, organism-based
Settings: dose 0.5-5 µM, time 6.0 day

**Q.** How did the Activity turn out when `CCOc1ccc2c(c1)c[n+](CCO)c1ccc(F)cc21.[Br-]` was run?
**A.** Dose-Dependent Effect
